Laboratory results from US20250171420A1 (Monte Rosa Therapeutics, Inc., priority 2022, published 2025).

Molecular target: T1, CK1α (Homo sapiens, UniProt P48729)
T1 construct: HEK293 clonal lines with CRISPR KI HiBiT tag on CSNK1A1
Test: CK1α NanoBit Assay (HiBiT-tagged CSNK1A1, HEK293 clonal lines)
Type: cell-based
Settings: HEK293 HiBiT-CSNK1A1/LgBiT cells, 24 h incubation
Experimental: HEK293 clonal lines with CRISPR KI HiBiT tag on CSNK1A1 and stably expressing LgBiT protein were obtained from Promega (Madison, WI). […] Cells were incubated at 37° C., 5% CO2 for 24 hours and then signal was read on a Pherastar FSX using “LUM plus” optic module.
Data analysis was performed in Scinamic (Scinamic, Cambridge, MA). Luminescence response (R) was calculated by the formula: response=100*(S−N)/(P−N) where S is the signal of the well, N and P the mean negative and positive control values respectively of the same plate.
DC50 data are reported in Table 2 for compounds in Table 1. In Table 2 below, According to the code, A represents a DC50 value of ≤0.1 μM, B represents a DC50 value>0.1 μM and ≤1 μM, C represents an DC50 value>1 μM.

T1 sequence (P48729 whole entry): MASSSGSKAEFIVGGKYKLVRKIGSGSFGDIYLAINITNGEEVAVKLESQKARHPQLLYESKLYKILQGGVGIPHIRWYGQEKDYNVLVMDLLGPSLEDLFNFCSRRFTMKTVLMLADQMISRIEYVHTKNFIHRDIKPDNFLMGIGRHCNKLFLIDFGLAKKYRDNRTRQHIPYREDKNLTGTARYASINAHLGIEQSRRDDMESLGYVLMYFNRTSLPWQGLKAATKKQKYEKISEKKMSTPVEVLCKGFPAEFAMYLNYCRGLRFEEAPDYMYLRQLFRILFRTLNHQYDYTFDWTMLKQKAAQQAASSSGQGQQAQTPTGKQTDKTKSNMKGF
T1 sequence (Q96SW2 whole entry, further chain): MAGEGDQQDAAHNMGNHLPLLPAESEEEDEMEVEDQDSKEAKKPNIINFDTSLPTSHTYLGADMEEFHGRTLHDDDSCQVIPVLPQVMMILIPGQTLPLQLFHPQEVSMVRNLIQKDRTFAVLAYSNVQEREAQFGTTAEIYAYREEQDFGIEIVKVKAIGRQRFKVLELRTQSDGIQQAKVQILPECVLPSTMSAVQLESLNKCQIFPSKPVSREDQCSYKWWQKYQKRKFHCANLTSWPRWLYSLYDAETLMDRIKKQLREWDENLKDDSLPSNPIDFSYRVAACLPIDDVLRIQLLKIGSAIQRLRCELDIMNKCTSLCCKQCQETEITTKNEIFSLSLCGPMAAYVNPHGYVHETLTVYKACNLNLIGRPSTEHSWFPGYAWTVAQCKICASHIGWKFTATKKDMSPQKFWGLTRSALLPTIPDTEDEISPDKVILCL
T1 sequence (Q16531 2-1140 partner limits assumed): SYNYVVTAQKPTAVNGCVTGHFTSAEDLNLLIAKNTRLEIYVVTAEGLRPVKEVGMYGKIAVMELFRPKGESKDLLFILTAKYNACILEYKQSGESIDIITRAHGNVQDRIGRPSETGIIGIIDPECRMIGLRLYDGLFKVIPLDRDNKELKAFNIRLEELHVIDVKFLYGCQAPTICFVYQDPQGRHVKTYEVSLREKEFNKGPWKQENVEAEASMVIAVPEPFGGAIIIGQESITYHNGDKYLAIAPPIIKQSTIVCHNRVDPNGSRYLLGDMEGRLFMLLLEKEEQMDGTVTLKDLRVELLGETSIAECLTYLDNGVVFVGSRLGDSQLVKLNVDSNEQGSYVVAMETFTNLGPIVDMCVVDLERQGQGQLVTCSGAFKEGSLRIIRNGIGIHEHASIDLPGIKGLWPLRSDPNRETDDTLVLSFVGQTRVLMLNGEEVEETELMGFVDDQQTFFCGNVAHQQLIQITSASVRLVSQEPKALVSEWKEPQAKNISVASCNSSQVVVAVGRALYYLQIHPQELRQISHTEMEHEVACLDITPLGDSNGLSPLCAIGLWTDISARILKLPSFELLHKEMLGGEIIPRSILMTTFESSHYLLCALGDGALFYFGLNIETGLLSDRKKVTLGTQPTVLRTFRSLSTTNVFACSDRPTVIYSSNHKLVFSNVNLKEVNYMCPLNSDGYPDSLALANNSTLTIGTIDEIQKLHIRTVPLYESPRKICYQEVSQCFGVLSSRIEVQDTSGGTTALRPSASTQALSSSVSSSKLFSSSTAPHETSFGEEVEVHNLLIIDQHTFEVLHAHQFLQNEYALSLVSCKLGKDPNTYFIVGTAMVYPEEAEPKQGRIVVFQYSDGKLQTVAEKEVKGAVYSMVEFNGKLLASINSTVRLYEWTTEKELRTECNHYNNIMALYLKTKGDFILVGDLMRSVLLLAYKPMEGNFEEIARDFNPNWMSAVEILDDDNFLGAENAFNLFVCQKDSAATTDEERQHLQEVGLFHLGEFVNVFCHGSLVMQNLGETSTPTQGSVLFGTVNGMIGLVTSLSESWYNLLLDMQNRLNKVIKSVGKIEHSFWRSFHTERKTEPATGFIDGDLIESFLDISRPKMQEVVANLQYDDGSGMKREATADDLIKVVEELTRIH

Compound	DC50 [µM]
O=C1CCC(N2Cc3cc(NC(=O)N4CCN(c5ccncn5)CC4)ccc3C2=O)C(=O)N1 (stereo not drawn) [Compound 266]	> 1
CC1CCc2ccccc2N1C(=O)Nc1ccc2c(c1)CN(C1CCC(=O)NC1=O)C2=O (stereo not drawn) [Compound 120]	0.1 to 1
CC(C)(C)C1Cc2ccccc2N(C(=O)Nc2ccc3c(c2)CN(C2CCC(=O)NC2=O)C3=O)C1 (stereo not drawn) [Compound 154]	< 0.1
O=C1CCC(N2Cc3cc(NC(=O)N4Cc5ccc(Cl)cc5C4)ccc3C2=O)C(=O)N1 (stereo not drawn) [Compound 177]	< 0.1
O=C1CCC(N2Cc3cc(NC(=O)N4CCc5cnccc54)ccc3C2=O)C(=O)N1 (stereo not drawn) [Compound 110, N-(2-(2,6-dioxopiperidin-3-yl)-1-oxoisoindolin-5-yl)-2,3-dihydro-1H-pyrrolo[3,2-c]pyridine-1-carboxamide]	0.1 to 1
Cc1ccccc1N1CCN(C(=O)Nc2ccc3c(c2)CN(C2CCC(=O)NC2=O)C3=O)CC1 (stereo not drawn) [Compound 261]	< 0.1
O=C1CC[C@@H](N2Cc3cc(NC(=O)N4c5ccccc5C[C@@H]4C(F)(F)F)ccc3C2=O)C(=O)N1 (single isomer, unassigned) [Compound 360]	< 0.1
CC(C)C1(c2ccccc2)CN(C(=O)Nc2ccc3c(c2)CN(C2CCC(=O)NC2=O)C3=O)C1 (stereo not drawn) [Compound 233]	0.1 to 1
O=C1CCC(N2Cc3cc(NC(=O)N4c5cccc(C(F)(F)F)c5CC45COC5)ccc3C2=O)C(=O)N1 (stereo not drawn) [Compound 296, N-(2-(2,6-dioxopiperidin-3-yl)-1-oxoisoindolin-5-yl)-4-(trifluoromethyl)spiro[indoline-2,3′-oxetane]-1-carboxamide]	< 0.1
O=C1CCC(N2Cc3cc(NC(=O)N4CCC(C(F)(F)F)c5ccccc54)ccc3C2=O)C(=O)N1 (stereo not drawn) [Compound 127]	< 0.1
Cc1ccnc(C2CCN(C(=O)Nc3ccc4c(c3)CN(C3CCC(=O)NC3=O)C4=O)CC2)n1 (stereo not drawn) [Compound 246]	> 1
C[C@H]1CCCN(C(=O)Nc2ccc3c(c2)CN(C2CCC(=O)NC2=O)C3=O)C1 (stereo partly drawn) [Compound 279]	0.1 to 1
O=C1CCC(N2Cc3cc(NC(=O)N4Cc5ccccc5CC4c4ccccc4)ccc3C2=O)C(=O)N1 (stereo not drawn) [Compound 215]	< 0.1
O=C1CCC(N2Cc3cc(NC(=O)N4Cc5ccccc5C5(CC5)C4)ccc3C2=O)C(=O)N1 (stereo not drawn) [Compound 136]	< 0.1
CC1Cc2ccccc2C(C)N1C(=O)Nc1ccc2c(c1)CN(C1CCC(=O)NC1=O)C2=O (stereo not drawn) [Compound 166]	< 0.1
O=C1CCC(N2Cc3cc(NC(=O)N4CCC(c5ccc(F)cn5)C4)ccc3C2=O)C(=O)N1 (stereo not drawn) [Compound 239]	0.1 to 1
O=C1CCC(N2Cc3cc(NC(=O)N4CCC(c5nccs5)C4)ccc3C2=O)C(=O)N1 (stereo not drawn) [Compound 247]	0.1 to 1
CC1(c2ccccc2)CCCN(C(=O)Nc2ccc3c(c2)CN(C2CCC(=O)NC2=O)C3=O)C1 (stereo not drawn) [Compound 259]	0.1 to 1
CC1(c2ccccc2F)CN(C(=O)Nc2ccc3c(c2)CN(C2CCC(=O)NC2=O)C3=O)C1 (stereo not drawn) [Compound 258]	0.1 to 1
O=C1CCC(N2Cc3cc(NC(=O)N4CCC(c5ccccc5)C4)ccc3C2=O)C(=O)N1 (stereo not drawn) [Compound 260]	< 0.1
Cc1cccc(C2CN(C(=O)Nc3ccc4c(c3)CN(C3CCC(=O)NC3=O)C4=O)C2)c1 (stereo not drawn) [Compound 226]	< 0.1
CC1(C)CCN(C(=O)Nc2ccc3c(c2)CN(C2CCC(=O)NC2=O)C3=O)c2ccccc21 (stereo not drawn) [Compound 143]	< 0.1
CC1(C)c2ccccc2CCN1C(=O)Nc1ccc2c(c1)CN(C1CCC(=O)NC1=O)C2=O (stereo not drawn) [Compound 156]	> 1

Compound	DC50 [µM]
O=C1CCC(N2Cc3cc(NC(=O)N4CCN(c5ncccn5)CC4)ccc3C2=O)C(=O)N1 (stereo not drawn) [Compound 272]	0.1 to 1
O=C1CCC(N2Cc3cc(NC(=O)N4CC(c5ccc(Cl)cc5)C4)ccc3C2=O)C(=O)N1 (stereo not drawn) [Compound 231]	< 0.1
O=C1CCC(N2Cc3cc(NC(=O)N4CCCC(O)C4)ccc3C2=O)C(=O)N1 (stereo not drawn) [Compound 262]	> 1
C[C@@H]1CCN(C(=O)Nc2ccc3c(c2)CN(C2CCC(=O)NC2=O)C3=O)[C@H](C)C1 (stereo partly drawn) [Compound 275]	> 1
C[C@H]1c2ccccc2CN1C(=O)Nc1ccc2c(c1)CN(C1CCC(=O)NC1=O)C2=O (stereo partly drawn) [Compound 167]	< 0.1
O=C1CCC(N2Cc3cc(NC(=O)N4CC(CC(F)F)(c5ccccc5)C4)ccc3C2=O)C(=O)N1 (stereo not drawn) [Compound 237]	0.1 to 1
O=C1CCC(N2Cc3cc(NC(=O)N4CC(c5ccccc5F)C4)ccc3C2=O)C(=O)N1 (stereo not drawn) [Compound 217]	< 0.1
O=C1CCC(N2Cc3cc(NC(=O)N4CCCc5cccnc54)ccc3C2=O)C(=O)N1 (stereo not drawn) [Compound 146]	0.1 to 1
O=C1CCC(N2Cc3cc(NC(=O)N4C[C@@H]5C[C@]5(C(F)F)C4)ccc3C2=O)C(=O)N1 (stereo partly drawn) [Compound 240]	0.1 to 1
O=C1CCC(N2Cc3cc(NC(=O)N4CCCc5cc(F)ccc54)ccc3C2=O)C(=O)N1 (stereo not drawn) [Compound 141]	< 0.1
Cc1ccccc1C1CN(C(=O)Nc2ccc3c(c2)CN(C2CCC(=O)NC2=O)C3=O)C1 (stereo not drawn) [Compound 227]	< 0.1
O=C1CCC(N2Cc3cc(NC(=O)N4CCC5CC54)ccc3C2=O)C(=O)N1 (stereo not drawn) [Compound 221]	0.1 to 1
O=C1CCC(N2Cc3cc(NC(=O)N4CCC5(CCC5)C4)ccc3C2=O)C(=O)N1 (stereo not drawn) [Compound 278]	< 0.1
C[C@@H]1c2ccccc2CN1C(=O)Nc1ccc2c(c1)CN(C1CCC(=O)NC1=O)C2=O (stereo partly drawn) [Compound 170]	< 0.1
O=C1CCC(N2Cc3cc(NC(=O)N4CC(c5cccc(C(F)(F)F)c5)C4)ccc3C2=O)C(=O)N1 (stereo not drawn) [Compound 241]	0.1 to 1
O=C1CCC(N2Cc3cc(NC(=O)N4C[C@@H]5[C@H]6CC[C@H](C6)[C@@H]5C4)ccc3C2=O)C(=O)N1 (stereo partly drawn) [Compound 220]	< 0.1
O=C1CCC(N2Cc3cc(NC(=O)N4CCCc5ncccc54)ccc3C2=O)C(=O)N1 (stereo not drawn) [Compound 145]	> 1
O=C1CCC(N2Cc3cc(NC(=O)N4CCC(c5ncccn5)C4)ccc3C2=O)C(=O)N1 (stereo not drawn) [Compound 229]	> 1
O=C1CCC(N2Cc3cc(NC(=O)N4c5ccccc5C[C@@H]4CO)ccc3C2=O)C(=O)N1 (stereo partly drawn) [Compound 125]	< 0.1
O=C1CCC(N2Cc3cc(NC(=O)N4CCCc5cccc(Cl)c54)ccc3C2=O)C(=O)N1 (stereo not drawn) [Compound 158]	0.1 to 1
CC1CCN(C(=O)Nc2ccc3c(c2)CN(C2CCC(=O)NC2=O)C3=O)CC1 (stereo not drawn) [Compound 281]	0.1 to 1
O=C1CCC(N2Cc3cc(NC(=O)N4Cc5ccncc5C4)ccc3C2=O)C(=O)N1 (stereo not drawn) [Compound 144]	0.1 to 1
O=C1CCC(N2Cc3cc(NC(=O)N4CCCC(C5CCC5)C4)ccc3C2=O)C(=O)N1 (stereo not drawn) [Compound 248]	< 0.1

Compound	DC50 [µM]
O=C1CCC(N2Cc3cc(NC(=O)N4CCCc5ccc(C(F)F)cc54)ccc3C2=O)C(=O)N1 (stereo not drawn) [Compound 129]	< 0.1
Cc1ccc2c(c1)N(C(=O)Nc1ccc3c(c1)CN(C1CCC(=O)NC1=O)C3=O)CCC2 (stereo not drawn) [Compound 149]	0.1 to 1
O=C1CCC(N2Cc3cc(NC(=O)N4C5CCCC4C5)ccc3C2=O)C(=O)N1 (stereo not drawn) [Compound 218]	< 0.1
CC1CCCCN1C(=O)Nc1ccc2c(c1)CN(C1CCC(=O)NC1=O)C2=O (stereo not drawn) [Compound 282]	0.1 to 1
O=C1CCC(N2Cc3cc(NC(=O)N4CCCc5cccc(OC(F)F)c54)ccc3C2=O)C(=O)N1 (stereo not drawn) [Compound 159]	0.1 to 1
C[C@@H]1C[C@H](C)c2ccccc2N1C(=O)Nc1ccc2c(c1)CN(C1CCC(=O)NC1=O)C2=O (stereo partly drawn) [Compound 128]	0.1 to 1
O=C1CCC(N2Cc3cc(NC(=O)N4CCCC4c4ccccn4)ccc3C2=O)C(=O)N1 (stereo not drawn) [Compound 270]	0.1 to 1
CC1CCCN(C(=O)Nc2ccc3c(c2)CN(C2CCC(=O)NC2=O)C3=O)C1 (stereo not drawn) [Compound 280]	0.1 to 1
O=C1CCC(N2Cc3cc(NC(=O)N4CCc5ccccc5C4c4ccccc4)ccc3C2=O)C(=O)N1 (stereo not drawn) [Compound 211]	< 0.1
O=C1CCC(N2Cc3cc(NC(=O)N4CCc5ccc(-c6ccccc6)cc5C4)ccc3C2=O)C(=O)N1 (stereo not drawn) [Compound 183]	< 0.1
N#Cc1cccc2c1CCCN2C(=O)Nc1ccc2c(c1)CN(C1CCC(=O)NC1=O)C2=O (stereo not drawn) [Compound 126]	> 1
O=C1CCC(N2Cc3cc(NC(=O)N4CCCc5ccc(C(F)(F)F)cc54)ccc3C2=O)C(=O)N1 (stereo not drawn) [Compound 114]	< 0.1
CC(C)(C)c1ccc2c(c1)CCN(C(=O)Nc1ccc3c(c1)CN(C1CCC(=O)NC1=O)C3=O)C2 (stereo not drawn) [Compound 194]	< 0.1
O=C1CCC(N2Cc3cc(NC(=O)N4CCN(c5nccs5)CC4)ccc3C2=O)C(=O)N1 (stereo not drawn) [Compound 242]	> 1
O=C1CCC(N2Cc3cc(NC(=O)N4C[C@H](c5ccccc5)[C@H]4CO)ccc3C2=O)C(=O)N1 (stereo partly drawn) [Compound 245]	0.1 to 1
O=C1CCC(N2Cc3cc(NC(=O)N4CCCc5ccc(F)cc54)ccc3C2=O)C(=O)N1 (stereo not drawn) [Compound 116]	< 0.1
Cc1cc2c(cn1)CCN2C(=O)Nc1ccc2c(c1)CN(C1CCC(=O)NC1=O)C2=O (stereo not drawn) [Compound 113]	> 1
O=C1CCC(N2Cc3cc(NC(=O)N4CCCCC4c4ccccc4)ccc3C2=O)C(=O)N1 (stereo not drawn) [Compound 253]	< 0.1
Cn1ccc(C2CCCN(C(=O)Nc3ccc4c(c3)CN(C3CCC(=O)NC3=O)C4=O)C2)n1 (stereo not drawn) [Compound 267]	0.1 to 1
O=C1CCC(N2Cc3cc(NC(=O)N4CC(n5cccn5)Cc5ccccc54)ccc3C2=O)C(=O)N1 (stereo not drawn) [Compound 161]	0.1 to 1
O=C1CCC(N2Cc3cc(NC(=O)N4CCC(c5cnccn5)C4)ccc3C2=O)C(=O)N1 (stereo not drawn) [Compound 223]	> 1
Cc1ccc(C2CCCN2C(=O)Nc2ccc3c(c2)CN(C2CCC(=O)NC2=O)C3=O)cn1 (stereo not drawn) [Compound 224]	0.1 to 1
O=C1CCC(N2Cc3cc(NC(=O)N4Cc5cccnc5C4)ccc3C2=O)C(=O)N1 (stereo not drawn) [Compound 121]	0.1 to 1
